# Measurements taken from patent US5112807A, “Compound "Leualacin", its preparation and its use in the treatment of cardiovascular disorders” (Sankyo Company, Limited, priority 1988, dated 1992).
# Legend:
# [1] = molecular target: T1, calcium channel (3H-nitrendipine binding to microsome fraction prepared from porcine heart) (Sus scrofa, UniProt A0A8W4FNC0); test: Radioligand binding assay: inhibition of 3H-nitrendipine binding to microsomes; details: 200 PM 3H-nitrendipine, 25° C., 30 minutes, pH 7.4, read-out: ID50, inhibition of binding of 3H-nitrendipine to microsomes (converted)
# T1 construct: 15 to 20 μg of a microsome fraction prepared from porcine heart; from tissue; host or cells: porcine heart microsome fraction
# T1 sequence (A0A8W4FNC0 1-2067): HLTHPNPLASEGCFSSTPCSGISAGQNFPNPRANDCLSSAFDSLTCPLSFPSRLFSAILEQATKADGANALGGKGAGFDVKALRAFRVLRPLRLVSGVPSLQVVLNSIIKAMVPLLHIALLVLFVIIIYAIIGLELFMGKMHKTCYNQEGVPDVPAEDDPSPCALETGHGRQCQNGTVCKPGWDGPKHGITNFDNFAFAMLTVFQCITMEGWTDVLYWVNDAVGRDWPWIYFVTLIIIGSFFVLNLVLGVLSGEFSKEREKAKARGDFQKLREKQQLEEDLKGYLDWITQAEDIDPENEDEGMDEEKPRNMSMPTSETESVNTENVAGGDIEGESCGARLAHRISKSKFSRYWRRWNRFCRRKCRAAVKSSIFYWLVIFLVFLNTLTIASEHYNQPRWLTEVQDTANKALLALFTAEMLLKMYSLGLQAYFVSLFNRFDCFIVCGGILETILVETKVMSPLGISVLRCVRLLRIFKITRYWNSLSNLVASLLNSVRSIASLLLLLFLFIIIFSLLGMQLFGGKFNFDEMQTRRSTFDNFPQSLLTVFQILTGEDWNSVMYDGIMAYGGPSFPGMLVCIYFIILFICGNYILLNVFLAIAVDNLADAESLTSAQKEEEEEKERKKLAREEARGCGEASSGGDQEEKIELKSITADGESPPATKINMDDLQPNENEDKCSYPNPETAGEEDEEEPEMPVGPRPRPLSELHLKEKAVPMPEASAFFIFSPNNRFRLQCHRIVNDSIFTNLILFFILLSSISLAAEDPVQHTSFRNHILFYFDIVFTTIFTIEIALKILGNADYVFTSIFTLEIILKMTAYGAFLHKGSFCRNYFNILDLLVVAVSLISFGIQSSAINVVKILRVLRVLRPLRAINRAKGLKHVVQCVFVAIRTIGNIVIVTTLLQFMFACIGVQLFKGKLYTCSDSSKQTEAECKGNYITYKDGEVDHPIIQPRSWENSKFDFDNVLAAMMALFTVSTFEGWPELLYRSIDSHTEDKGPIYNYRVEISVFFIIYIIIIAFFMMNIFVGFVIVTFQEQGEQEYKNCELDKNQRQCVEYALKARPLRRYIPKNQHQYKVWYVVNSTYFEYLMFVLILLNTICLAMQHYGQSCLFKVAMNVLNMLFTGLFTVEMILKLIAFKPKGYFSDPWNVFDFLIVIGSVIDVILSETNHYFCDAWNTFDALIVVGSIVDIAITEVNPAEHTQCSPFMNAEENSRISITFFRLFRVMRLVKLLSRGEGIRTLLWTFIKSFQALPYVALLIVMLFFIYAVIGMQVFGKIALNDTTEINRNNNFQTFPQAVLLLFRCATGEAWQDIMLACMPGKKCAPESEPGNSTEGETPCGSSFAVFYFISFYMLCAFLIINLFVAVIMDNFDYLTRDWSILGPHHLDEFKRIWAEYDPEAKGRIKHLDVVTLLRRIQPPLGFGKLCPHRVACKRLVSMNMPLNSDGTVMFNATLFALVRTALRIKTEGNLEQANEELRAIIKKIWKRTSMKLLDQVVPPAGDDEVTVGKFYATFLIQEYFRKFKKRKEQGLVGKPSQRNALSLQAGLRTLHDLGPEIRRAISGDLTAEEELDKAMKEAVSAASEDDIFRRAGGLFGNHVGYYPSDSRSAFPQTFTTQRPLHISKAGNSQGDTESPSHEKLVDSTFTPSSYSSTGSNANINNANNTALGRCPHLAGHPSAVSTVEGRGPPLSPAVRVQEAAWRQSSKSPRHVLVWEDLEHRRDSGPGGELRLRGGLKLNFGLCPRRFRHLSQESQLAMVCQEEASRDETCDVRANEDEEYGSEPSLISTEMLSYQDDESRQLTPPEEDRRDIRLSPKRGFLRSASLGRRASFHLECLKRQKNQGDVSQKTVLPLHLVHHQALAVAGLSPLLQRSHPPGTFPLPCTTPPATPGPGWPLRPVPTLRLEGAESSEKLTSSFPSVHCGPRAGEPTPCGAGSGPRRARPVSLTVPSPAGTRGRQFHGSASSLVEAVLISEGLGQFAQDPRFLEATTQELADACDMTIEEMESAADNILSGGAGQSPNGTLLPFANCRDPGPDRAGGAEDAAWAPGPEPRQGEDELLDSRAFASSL
# Source text: The progress of the cultivation and the amount of Leualacin produced as the culture proceeds can be determined by a radio ligand binding assay method, that is, for example, the method of […] and R. E. Oswald [Journal of Biological Chemistry, 260, 8456-8464 (1985)] which is based on the ability of Leualacin to inhibit the binding of ^3 H-nitrendipine to microsomes. High performance liquid chromatography may also be used. […] This experiment used a radioligand binding assay method, which is a modification of the method of […] and R. E. Oswald [Journal of Biological Chemistry, 260, 8456-8464 [(1985)], to determine the activity which inhibits the binding of ^3 H-nitrendipine to microsomes. The reaction was carried out at 25° C. for 30 minutes in 1 ml of a reaction mixture comprising 15 to 20 μg of a microsome fraction prepared from porcine heart, 200 PM ^3 H-nitrendipine (NEN-Dupont Pharmaceuticals, specific activity 88.1 Ci/mM), 50 mM NaOH-HEPES buffer (pH 7.4) and 0.5% by volume ethanol. (HEPES is N-2-hydroxyethylpiperazine-N'-2-ethanesulfonic acid). […] The glass-fibre filter was then put in a vial and OPTIFLUOR (Packard Co., Ltd.) was used as the scintillator and the radioactivity (as disintegrations per minute) was measured.
# [2] = tested on: SHR (spontaneously hypertensive rats); test: Antihypertensive activity in SHR; format: in vivo; details: conscious male SHR
# Procedure: Male SHR (spontaneously hypertensive rats), 15 weeks old, were anesthetized with sodium pentobarbital (50 mg/kg intraperitoneally). and a polyethylene cannula was inserted through the left femoral artery into the abdominal aorta. The other end of the cannula was led out of the body and fixed at the back of the neck. One week after the operation, when the animal had recovered from the stress of the surgery, the other end of the cannula was connected to a blood pressure transducer, which was constructed according to the directions of Laffan et al. [Laffan, P. J., Peterson A., Hitch S. W. and Jeunelot C., Cardiovascular Res. 6, 319-324 (1972)], but with slight modifications. The blood pressure and heart rate of the conscious and unstressed SHR were measured. After the blood pressure and the heart rate had stabilised for more than one hour, the test drug was administered by gavage. After administration of the test sample, the blood pressure and the heart rate were measured every 15 minutes over a […] is shown in Table 2.
# mice = test: Acute toxicity; format: in vivo; details: orally, 200 mg/kg
# Procedure: No toxicity was noted when Leualacin was orally administered to mice at a dose of 200 mg/kg, which is far in excess of any reasonable therapeutic dose.
# tenia caecum = test: Calcium antagonizing action in the tenia caecum; format: cell-based, guinea pigs; details: 30 minutes incubation, calcium chloride-induced contraction
# Procedure: The calcium antagonizing activity in the tenia caecum was measured according to the method of M. Spedding [Naunyn-Schmiedeberg's Arch. Pharmacol. 318, 234-240(1982)]. Male guinea pigs weighing 250 to 300 g were laparotomized under pentobarbital anesthesia and the tenia was immediately removed from the caecum. The tenia was cut into strips of 6-7 cm length and suspended in a Magnus vessel filled with 20 ml of Tyrode's solution without calcium aerated with a mixed gas (O2 95%-CO2 5% by volume). After the specimen had eguilibrated by standing for 1 hour under the above conditions, 0.2 ml each of 30, 100 and 300 mM aqueous calcium chloride solutions were cumulatively added at 3 minute intervals and the contraction of the specimen was measured. After the measurements, the specimen was washed twice with Tyrode's solution without calcium and left for 30 minutes. The specimen was then incubated with Leualacin for 30 minutes, after which 0.2 ml each of 30, 100 and 300 mM calcium chloride solutions were cumulatively added at 3 minute intervals in the same manner as above, and the contraction was again measured. The contraction after the treatment with the Leualacin solution was deducted from that after the treatment with the calcium chloride solution alone and the value obtained was divided by the contraction after the treatment with the calcium chloride solution alone, to give the antagonizing rate.
# [3] = Chemical and physical properties: description and solubility; format: physicochemical
# Source text: Leualacin has the molecular structure shown above and the following chemical and physical properties: […]
structure (smiles),measurement,setting,value
"CC(C)CC1NC(=O)C(CC(C)C)OC(=O)CCNC(=O)C(Cc2ccccc2)N(C)C(=O)C(CC(C)C)OC1=O (centres unmarked) [Leualacin, 11-benzyl-2,5,8-triisobutyl-10-methyl-1,7-dioxa-4,10,13-triazacyclohexadec ane-3,6,9,12,16-pentone]",IC50,[1],1730 nM
same,Decrease of blood pressure (mmHg),[2]; 100 μg/kg by gavage,44 mmHg
same,Decrease of blood pressure (mmHg),[2]; 300 μg/kg by gavage,57 mmHg
same,Acute toxicity,mice,No toxicity
same,Antagonizing rate (%),tenia caecum; Leualacin 10^-6 g/ml,97%
same,Antagonizing rate (%),tenia caecum; Leualacin 10^-7 g/ml,73%
same,Antagonizing rate (%),tenia caecum; Leualacin 10^-8 g/ml,22%
same,Antagonizing rate (%),tenia caecum; Leualacin 10^-9 g/ml,0%
same,Description,[3],"neutral, fat-soluble"
same,Solubility in organic solvents,"[3]; methanol, acetone, chloroform and ethyl acetate",Soluble
same,Solubility in water,[3]; water,insoluble
